{"source": "patent US4801444A", "about": "“Medicinal preparation for individual prevention of venereal diseases and treatment of urogenital trichomoniasis” (Poltavsky Meditsinsky Stomatologichesky Institut, priority 1988, dated 1989)", "origin": "cited, not measured here", "key": {"[1]": {"tested_on": "urogenital trichomoniasis"}, "trichomonads": {"tested_on": "trichomonads", "settings": "imidazole medicines, clinical use"}, "venereal diseases [2]": {"tested_on": "venereal diseases", "settings": "0.05-0.1 percent solution"}, "venereal diseases [3]": {"tested_on": "venereal diseases", "settings": "0.05-0.1 percent solution", "remark": "listed apart in the source"}, "[4]": {"settings": "0.05-0.1 percent solution, clinical application"}}, "note": "Where two headings read alike, the source gives them in different places.", "data": [{"compound": "O=S(=O)([O-])[O-].[Zn+2]", "note": "[zinc sulphate]", "values": [{"measurement": "efficacy in topical treatment of urogenital trichomoniasis", "setting": "[1]; topical (external)", "value": "insufficiently efficacious"}]}, {"compound": "O=S(=O)([O-])[O-].[Cu+2]", "note": "[copper sulphate]", "values": [{"measurement": "efficacy in topical treatment of urogenital trichomoniasis", "setting": "[1]; topical (external)", "value": "insufficiently efficacious"}]}, {"compound": "OB(O)O", "note": "[boric acid]", "values": [{"measurement": "efficacy in topical treatment of urogenital trichomoniasis", "setting": "[1]; in vivo", "value": "insufficiently efficacious"}]}, {"compound": "Cc1ncc([N+](=O)[O-])n1CCO", "note": "[Metronidazole]", "values": [{"measurement": "relapsing of a specific process", "setting": "trichomonads", "value": "up to 8.4% of all cases"}]}, {"compound": "[H]/N=C(\\N/C(=N/[H])NCCCCCCNC(=N)NC(=N)Nc1ccc(Cl)cc1)Nc1ccc(Cl)cc1", "note": "[Chlorhexidine]", "values": [{"measurement": "bactericidal activity in vitro", "setting": "venereal diseases [2]", "value": "adequate bactericidal activity"}, {"measurement": "bactericidal activity in tests on animals", "setting": "venereal diseases [3]", "value": "adequate bactericidal activity"}, {"measurement": "effect upon skin and genital mucosa in man", "setting": "[4]", "value": "irritating and withering effect upon the skin and genital mucosa"}]}, {"compound": "CCS(=O)(=O)CCn1c([N+](=O)[O-])cnc1C", "note": "[Tinidazole]", "values": [{"measurement": "relapsing of a specific process", "setting": "trichomonads", "value": "up to 8.4% of all cases"}]}, {"compound": "CC(=O)Nc1cc([As](=O)(O)O)ccc1O", "note": "[Acetarsol]", "values": [{"measurement": "efficacy in topical treatment of urogenital trichomoniasis", "setting": "[1]; topical (external)", "value": "insufficiently efficacious"}]}, {"compound": "O=[N+]([O-])[O-].[Ag+]", "note": "[lapis]", "values": [{"measurement": "efficacy in topical treatment of urogenital trichomoniasis", "setting": "[1]; topical (external)", "value": "insufficiently efficacious"}]}, {"compound": "O=C(N[C@H](CO)[C@H](O)c1ccc([N+](=O)[O-])cc1)C(Cl)Cl", "note": "[laevomycetin]", "values": [{"measurement": "efficacy in topical treatment of urogenital trichomoniasis", "setting": "[1]; topical (external)", "value": "insufficiently efficacious"}]}]}
